According to article PMC12775434, “Ultra-large virtual screening unveils potent agonists of the neuromodulatory orphan receptor GPR139” (Nature Communications, 2025):
Where “and” joins values, the source holds several entries; their conditions need not be identical. Equal entries are not always repeated. Where two headings read alike, the source gives them in different places.

Molecular target: T1, GPR139 (Homo sapiens, UniProt Q6DWJ6)
T1 sequence (Q6DWJ6 1-353): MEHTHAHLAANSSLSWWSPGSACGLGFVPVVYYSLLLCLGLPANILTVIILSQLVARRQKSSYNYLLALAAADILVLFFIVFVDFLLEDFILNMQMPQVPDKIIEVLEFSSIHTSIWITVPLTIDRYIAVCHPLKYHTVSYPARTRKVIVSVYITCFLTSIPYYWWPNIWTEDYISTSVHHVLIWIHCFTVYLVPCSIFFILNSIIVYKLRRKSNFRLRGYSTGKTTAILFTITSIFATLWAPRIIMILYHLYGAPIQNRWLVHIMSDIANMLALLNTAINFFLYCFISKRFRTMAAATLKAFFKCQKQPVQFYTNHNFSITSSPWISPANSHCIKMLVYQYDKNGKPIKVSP
Test: Inositol monophosphate (IP1) accumulation assay, GPR139-CHOk1
Format: cell-based
Conditions: for Emax: normalized to Lundbeck Cmp 1a, read-out: Emax (%) IP1
Experimental: Primary screening and pharmacological characterization of compounds were performed using a CHO-K1 cell line that stably expresses human GPR139 (GPR139-CHOk1). The GPR139-CHOk1 cell line was kindly provided by H. Lundbeck A/S, Denmark[24]. GPR139-CHOk1 cells were grown in Ham’s F-12 Kaighn’s Modification Medium (ThermoFisher #21127030) supplemented with 10% dialyzed fetal bovine serum (US origin, ThermoFisher #26400044), 100 units/mL Penicillin-Streptomycin (ThermoFisher #15140122), and 1 mg/mL Geneticin (ThermoFisher #11811031). […] M1R-CHOk1 cells were purchased from The Missouri S&T cDNA Resource Center (#CEM100TN00). M1R-CHOk1 cells were grown in Ham’s F12 Medium (ThermoFisher #21765029) supplemented with 10% fetal bovine serum (Brazilian origin, ThermoFisher #10270106), 100 units/mL Penicillin-Streptomycin, and 0.25 mg/mL Geneticin. HEK293A cells transiently transfected with GPR139 were used for additional pharmacological assessment of signaling pathways activated by GPR139. HEK239A cells were generously provided by Dr. Asuka Inoue, Tohoku University, Japan. HEK293A cells were grown in Dulbecco’s Modified Eagle Medium (ThermoFisher #31966047) supplemented with 10% dialyzed fetal bovine serum and 100 units/mL Penicillin-Streptomycin. Cell lines were maintained at 37 °C in humidified incubator equilibrated with 5% CO2.
HTRF IP-One Gq kit (Cisbio #62IPAPEC) was used to detect the accumulation of inositol monophosphate (IP1) as described in the work by Shehata et al.[26]. GPR139-CHOk1 cells were dissociated and resuspended in HEPES buffer. 50,000 cells in 5 µL and 5 µL test compounds diluted from DMSO stocks (final DMSO concentration of maximally 0.3%) in HEPES buffer supplemented with 40 mM LiCl were mixed in each well of white 384-well OptiPlate (PerkinElmer #6007290). The cells were incubated for 1 h at 37 °C. Then, 10 µL detection reagent composed of 2.5% Eu3 + -anti-IP1 antibody and 2.5% IP1-d2 diluted in lysis buffer was added, and the cells were incubated for 1 h at room temperature before measurements. Measurements were performed on EnVision Multimode Plate Reader (PerkinElmer) using excitation light of 340 nm and emission light of 615 nm and 665 nm. The time resolved-fluorescence resonance energy transfer (TR-FRET) 665 nm/615 nm ratio, which is inversely proportional to the IP1 accumulation, was used to determine the IP1 response.
Pharmacological data and statistical analyses were performed in GraphPad Prism v9–10 (Graphpad Software Inc., San Diego, CA), which are also specifically described in the figure and table legends. The functional assay responses were normalized to buffer (0%) and Lundbeck Cmp 1a or JNJ-63533054 (100%), for Ca^2+ and IP1 experiments in the GPR139-CHOk1 stable cell line or Ca^2+, G protein activation, and arrestin-3 recruitment experiments in the HEK293A cells transiently transfected with GPR139, respectively. Data are from at least three independent experiments, unless stated otherwise. Concentration-response curves were fitted applying non-linear regression using the log (agonist) versus response model with variable slope. ANOVA was applied for comparing results and determining statistical significance. Comparison of responses to the reference was performed using one-way ANOVA with Dunnett’s multiple comparisons test at significance threshold of p < 0.05. Comparison of responses across assays and ligands was performed using two-way ANOVA with Tukey’s multiple comparisons test at a significance threshold of p < 0.05.

[1] = Supplementary Table 2, mean ± SEM, read-out: pEC50 IP1 (converted)
[2] = log [Compound] M -4.5, replicate experiments
[3] = log [Compound] M -5.0, replicate experiments
[4] = log [Compound] M -5.5, replicate experiments
[5] = log [Compound] M -6.0, replicate experiments
[6] = log [Compound] M -6.5, replicate experiments
[7] = log [Compound] M -7.0, replicate experiments
[8] = log [Compound] M -7.5, replicate experiments
[9] = log [Compound] M -8.0, replicate experiments
[10] = log [compound] M -4.5, individual replicates
[11] = log [compound] M -5.0, individual replicates
[12] = log [compound] M -5.5, individual replicates
[13] = log [compound] M -6.0, individual replicates
[14] = log [compound] M -6.5, individual replicates
[15] = log [compound] M -7.0, individual replicates
[16] = log [compound] M -7.5, individual replicates
[17] = log [compound] M -8.0, individual replicates

| SMILES | EC50 [1] | Emax (Supplementary Table 2) | IP1 response (% of Cmp 1a) [2] | IP1 response (% of Cmp 1a) [3] | IP1 response (% of Cmp 1a) [4] | IP1 response (% of Cmp 1a) [5] | IP1 response (% of Cmp 1a) [6] | IP1 response (% of Cmp 1a) [7] | IP1 response (% of Cmp 1a) [8] | IP1 response (% of Cmp 1a) [9] | EC50 (GPR139-CHOk1, read-out: EC50, IP1 accumulation) | IP1 response (% of Cmp 1a) [10] | IP1 response (% of Cmp 1a) [11] | IP1 response (% of Cmp 1a) [12] | IP1 response (% of Cmp 1a) [13] | IP1 response (% of Cmp 1a) [14] | IP1 response (% of Cmp 1a) [15] | IP1 response (% of Cmp 1a) [16] | IP1 response (% of Cmp 1a) [17] |
| --- | --- | --- | --- | --- | --- | --- | --- | --- | --- | --- | --- | --- | --- | --- | --- | --- | --- | --- | --- |
| Cc1cc(-c2nc(CC(=O)NC(C)c3ccccc3)no2)sc1C (stereo not shown) [Compound 1, CC(NC(=O)CC1=NOC(=N1)C2=CC(C)=C(C)S2)C=3C=CC=CC3] | 0.794 µM | 114 ± 5% | 99 % of Cmp 1a and 115 % of Cmp 1a and 112 % of Cmp 1a and 118 % of Cmp 1a | 92 % of Cmp 1a and 116 % of Cmp 1a and 103 % of Cmp 1a and 95 % of Cmp 1a | 125 % of Cmp 1a and 86 % of Cmp 1a and 77 % of Cmp 1a and 96 % of Cmp 1a | 63 % of Cmp 1a and 74 % of Cmp 1a and 39 % of Cmp 1a and 72 % of Cmp 1a | 35 % of Cmp 1a and 29 % of Cmp 1a and 17 % of Cmp 1a and 40 % of Cmp 1a | 21 % of Cmp 1a and 14 % of Cmp 1a and 6 % of Cmp 1a and 18 % of Cmp 1a | -5 % of Cmp 1a and 4 % of Cmp 1a and 0.66 % of Cmp 1a and 5.34 % of Cmp 1a | 1.43 % of Cmp 1a and -2.78 % of Cmp 1a and 0.322 % of Cmp 1a and 4 % of Cmp 1a | – | – | – | – | – | – | – | – | – |
| Cc1cscc1-c1nc(CC(=O)NC(C)c2ccccc2)no1 (stereo not shown) [Compound 1.1, CC(C1=CC=CC=C1)NC(CC2=NOC(C3=CSC=C3C)=N2)=O] | – | 91 ± 10% | 92 % of Cmp 1a and 58 % of Cmp 1a and 83 % of Cmp 1a and 87 % of Cmp 1a | 112 % of Cmp 1a and 74 % of Cmp 1a and 80 % of Cmp 1a and 115 % of Cmp 1a | 111 % of Cmp 1a and 87 % of Cmp 1a and 96 % of Cmp 1a and 100 % of Cmp 1a | 125 % of Cmp 1a and 85 % of Cmp 1a and 89 % of Cmp 1a | 112 % of Cmp 1a and 76 % of Cmp 1a (2×) and 95 % of Cmp 1a | 71 % of Cmp 1a and 56 % of Cmp 1a and 38 % of Cmp 1a and 67 % of Cmp 1a | 56 % of Cmp 1a and 27 % of Cmp 1a and 28 % of Cmp 1a and 45 % of Cmp 1a | 22 % of Cmp 1a and 5 % of Cmp 1a and -0.544 % of Cmp 1a and 16 % of Cmp 1a | 0.05 µM | 92 % of Cmp 1a and 58 % of Cmp 1a and 83 % of Cmp 1a and 87 % of Cmp 1a | 112 % of Cmp 1a and 74 % of Cmp 1a and 80 % of Cmp 1a and 115 % of Cmp 1a | 111 % of Cmp 1a and 87 % of Cmp 1a and 96 % of Cmp 1a and 100 % of Cmp 1a | 125 % of Cmp 1a and 85 % of Cmp 1a and 89 % of Cmp 1a | 112 % of Cmp 1a and 76 % of Cmp 1a (2×) and 95 % of Cmp 1a | 71 % of Cmp 1a and 56 % of Cmp 1a and 38 % of Cmp 1a and 67 % of Cmp 1a | 56 % of Cmp 1a and 27 % of Cmp 1a and 28 % of Cmp 1a and 45 % of Cmp 1a | 22 % of Cmp 1a and 5 % of Cmp 1a and -0.544 % of Cmp 1a and 16 % of Cmp 1a |
| COc1ccccc1-c1nc(CC(=O)NC(C)c2ccccc2)no1 (stereo not shown) [Compound 1.2, COC1=C(C2=NC(CC(NC(C3=CC=CC=C3)C)=O)=NO2)C=CC=C1] | 0.501 µM | 100 ± 9% | – | – | – | – | – | – | – | – | – | 124 % of Cmp 1a and 88 % of Cmp 1a and 75 % of Cmp 1a and 93 % of Cmp 1a | 116 % of Cmp 1a and 87 % of Cmp 1a and 73 % of Cmp 1a and 117 % of Cmp 1a | 100 % of Cmp 1a and 64 % of Cmp 1a and 57 % of Cmp 1a and 96 % of Cmp 1a | 93 % of Cmp 1a and 47 % of Cmp 1a (2×) and 64 % of Cmp 1a | 57 % of Cmp 1a and 45 % of Cmp 1a and 31 % of Cmp 1a and 51 % of Cmp 1a | 15 % of Cmp 1a and 18 % of Cmp 1a and 6 % of Cmp 1a and 14 % of Cmp 1a | 15 % of Cmp 1a and 11 % of Cmp 1a and -2 % of Cmp 1a and 7.38 % of Cmp 1a | 2 % of Cmp 1a and -5.58 % of Cmp 1a and -11 % of Cmp 1a and 6.5 % of Cmp 1a |
| Cc1nocc1-c1nc(CC(=O)NC(C)c2ccccc2)no1 (stereo not shown) [Compound 1.5, CC(C1=CC=CC=C1)NC(CC2=NOC(C3=CON=C3C)=N2)=O] | 0.501 µM | 102 ± 15% | – | – | – | – | – | – | – | – | – | 120 % of Cmp 1a and 99 % of Cmp 1a and 50 % of Cmp 1a and 106 % of Cmp 1a | 127 % of Cmp 1a and 79 % of Cmp 1a and 71 % of Cmp 1a and 109 % of Cmp 1a | 103 % of Cmp 1a and 63 % of Cmp 1a and 65 % of Cmp 1a and 87 % of Cmp 1a | 75 % of Cmp 1a and 61 % of Cmp 1a and 56 % of Cmp 1a and 68 % of Cmp 1a | 59 % of Cmp 1a and 41 % of Cmp 1a and 29 % of Cmp 1a and 43 % of Cmp 1a | 26 % of Cmp 1a and 25 % of Cmp 1a and 8 % of Cmp 1a and 18 % of Cmp 1a | 22 % of Cmp 1a and 7 % of Cmp 1a and 0.699 % of Cmp 1a and 13 % of Cmp 1a | 12 % of Cmp 1a and -12 % of Cmp 1a and -8.56 % of Cmp 1a and 4.3 % of Cmp 1a |
| COc1cc(-c2nc(CC(=O)NC(C)c3ccccc3)no2)ccn1 (stereo not shown) [Compound 1.7, COC1=NC=CC(C2=NC(CC(NC(C3=CC=CC=C3)C)=O)=NO2)=C1] | 1.58 µM | 117 ± 14% | – | – | – | – | – | – | – | – | – | 142 % of Cmp 1a and 109 % of Cmp 1a and 76 % of Cmp 1a and 127 % of Cmp 1a | 138 % of Cmp 1a and 94 % of Cmp 1a and 74 % of Cmp 1a and 127 % of Cmp 1a | 84 % of Cmp 1a and 64 % of Cmp 1a and 60 % of Cmp 1a and 90 % of Cmp 1a | 57 % of Cmp 1a and 49 % of Cmp 1a and 36 % of Cmp 1a and 61 % of Cmp 1a | 27 % of Cmp 1a and 9 % of Cmp 1a and 14 % of Cmp 1a and 24 % of Cmp 1a | 16 % of Cmp 1a and 1.76 % of Cmp 1a and 0.565 % of Cmp 1a and 7 % of Cmp 1a | 8 % of Cmp 1a and -3 % of Cmp 1a and 0.446 % of Cmp 1a and 6 % of Cmp 1a | 7 % of Cmp 1a and -5.45 % of Cmp 1a and -4.55 % of Cmp 1a and 1 % of Cmp 1a |
